Measured values published in article PMC5344682, “Tuned SMC Arms Drive Chromosomal Loading of Prokaryotic Condensin” (Molecular Cell, 2017).

Experiments:
Test in all cases: PK/LDH coupled ATPase assay, NADH absorbance, Hill fit
Assay type in all cases: biochemical
Smc (Bs Smc) [1] = molecular target: T1, Smc (Bs Smc) (Bacillus subtilis, UniProt P51834, DEL439-486/DEL685-732); conditions: 50 mM HEPES-KOH pH 7.5, 50 mM NaCl, 2 mM MgCl2, 25 C, 0.3 uM protein, ATP varied; Mini-Smc(1-438, 487-684, 733-1186), construct taken from plasmid pSG2914
T1 construct: full length 1186 residues, untagged, E. coli BL21-Gold(DE3), homodimer; plasmid pSG1497 pET-22b Smc; no ScpAB or DNA
T1 sequence (P51834 other isoform, or with tags, fused parts or gaps DEL439-486/DEL685-732): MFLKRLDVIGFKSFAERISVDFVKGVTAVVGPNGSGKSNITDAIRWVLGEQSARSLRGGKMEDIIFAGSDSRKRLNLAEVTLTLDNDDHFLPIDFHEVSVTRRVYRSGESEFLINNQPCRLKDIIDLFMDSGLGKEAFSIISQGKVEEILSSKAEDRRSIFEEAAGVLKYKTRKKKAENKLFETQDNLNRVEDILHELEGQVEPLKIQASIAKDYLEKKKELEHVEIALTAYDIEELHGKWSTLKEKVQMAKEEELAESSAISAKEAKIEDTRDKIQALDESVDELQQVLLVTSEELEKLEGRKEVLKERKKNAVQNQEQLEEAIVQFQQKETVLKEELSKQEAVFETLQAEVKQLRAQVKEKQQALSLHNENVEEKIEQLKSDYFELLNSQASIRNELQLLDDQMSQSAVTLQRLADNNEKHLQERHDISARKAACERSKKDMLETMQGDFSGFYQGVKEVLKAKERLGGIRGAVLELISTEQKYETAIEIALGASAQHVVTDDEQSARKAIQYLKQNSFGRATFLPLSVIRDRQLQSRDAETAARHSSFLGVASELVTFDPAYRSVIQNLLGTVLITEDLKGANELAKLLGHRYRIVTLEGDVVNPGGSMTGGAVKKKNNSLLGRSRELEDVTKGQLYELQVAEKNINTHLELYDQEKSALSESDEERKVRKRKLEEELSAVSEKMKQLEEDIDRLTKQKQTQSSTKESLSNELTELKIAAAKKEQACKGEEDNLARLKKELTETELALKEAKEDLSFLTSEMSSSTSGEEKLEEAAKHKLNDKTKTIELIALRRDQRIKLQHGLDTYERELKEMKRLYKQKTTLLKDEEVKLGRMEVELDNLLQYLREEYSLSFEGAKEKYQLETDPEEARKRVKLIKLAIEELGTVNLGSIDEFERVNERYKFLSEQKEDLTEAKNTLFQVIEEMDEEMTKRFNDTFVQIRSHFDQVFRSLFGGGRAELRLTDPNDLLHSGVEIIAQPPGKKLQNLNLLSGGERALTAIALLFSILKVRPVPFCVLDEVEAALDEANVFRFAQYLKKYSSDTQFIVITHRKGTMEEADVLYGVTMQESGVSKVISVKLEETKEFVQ

Smc (Bs Smc) [2] = molecular target: T2, Smc (Bs Smc) (Bacillus subtilis, UniProt P51834); conditions: 50 mM HEPES-KOH pH 7.5, 50 mM NaCl, 2 mM MgCl2, 25 C, 0.3 uM protein, ATP varied; peptide insertion, plasmid pSG2965; matching strain printed as smc(1-394)-SGPGGGGGRQQAS-smc(395-1186)
T2 construct: full length 1186 residues, untagged, E. coli BL21-Gold(DE3), homodimer; plasmid pSG1497 pET-22b Smc; no ScpAB or DNA
T2 sequence (P51834 whole entry): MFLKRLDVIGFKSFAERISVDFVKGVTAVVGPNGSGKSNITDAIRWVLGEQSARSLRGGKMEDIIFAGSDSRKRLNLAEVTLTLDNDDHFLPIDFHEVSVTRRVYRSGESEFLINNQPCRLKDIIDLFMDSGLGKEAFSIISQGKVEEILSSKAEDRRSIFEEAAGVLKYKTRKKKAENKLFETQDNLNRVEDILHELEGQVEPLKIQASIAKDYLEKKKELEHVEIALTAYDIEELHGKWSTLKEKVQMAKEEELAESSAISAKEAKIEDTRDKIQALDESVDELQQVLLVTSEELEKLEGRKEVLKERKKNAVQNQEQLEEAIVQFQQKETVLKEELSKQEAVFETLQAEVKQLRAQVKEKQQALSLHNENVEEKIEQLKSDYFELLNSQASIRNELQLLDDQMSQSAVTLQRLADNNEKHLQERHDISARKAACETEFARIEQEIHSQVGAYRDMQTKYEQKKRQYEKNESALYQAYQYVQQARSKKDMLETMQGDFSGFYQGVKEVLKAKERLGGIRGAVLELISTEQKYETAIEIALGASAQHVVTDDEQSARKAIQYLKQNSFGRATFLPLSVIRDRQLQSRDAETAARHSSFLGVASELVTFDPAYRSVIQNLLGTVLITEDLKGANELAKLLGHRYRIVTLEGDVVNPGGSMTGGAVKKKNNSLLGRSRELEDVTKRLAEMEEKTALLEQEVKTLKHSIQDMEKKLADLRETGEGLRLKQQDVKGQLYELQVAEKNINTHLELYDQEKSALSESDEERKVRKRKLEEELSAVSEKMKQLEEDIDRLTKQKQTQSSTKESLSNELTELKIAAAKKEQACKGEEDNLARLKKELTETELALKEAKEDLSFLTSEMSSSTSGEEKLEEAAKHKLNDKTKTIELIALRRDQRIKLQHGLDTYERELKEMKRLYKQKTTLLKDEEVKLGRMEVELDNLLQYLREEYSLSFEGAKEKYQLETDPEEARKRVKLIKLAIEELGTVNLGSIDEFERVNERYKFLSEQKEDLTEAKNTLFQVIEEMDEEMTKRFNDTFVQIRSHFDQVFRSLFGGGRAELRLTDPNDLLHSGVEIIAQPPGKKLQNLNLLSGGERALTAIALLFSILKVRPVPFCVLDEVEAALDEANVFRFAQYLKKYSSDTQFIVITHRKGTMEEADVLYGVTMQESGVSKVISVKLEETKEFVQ

Smc (Bs Smc) [3] = molecular target: T3, Smc (Bs Smc) (Bacillus subtilis, UniProt P51834, DEL396-486/DEL685-775); conditions: 50 mM HEPES-KOH pH 7.5, 50 mM NaCl, 2 mM MgCl2, 25 C, 0.3 uM protein, ATP varied; Mini-Smc(1-395, 487-684, 776-1186), construct taken from plasmid pSG2917
T3 construct: full length 1186 residues, untagged, E. coli BL21-Gold(DE3), homodimer; plasmid pSG1497 pET-22b Smc; no ScpAB or DNA
T3 sequence (P51834 other isoform, or with tags, fused parts or gaps DEL396-486/DEL685-775): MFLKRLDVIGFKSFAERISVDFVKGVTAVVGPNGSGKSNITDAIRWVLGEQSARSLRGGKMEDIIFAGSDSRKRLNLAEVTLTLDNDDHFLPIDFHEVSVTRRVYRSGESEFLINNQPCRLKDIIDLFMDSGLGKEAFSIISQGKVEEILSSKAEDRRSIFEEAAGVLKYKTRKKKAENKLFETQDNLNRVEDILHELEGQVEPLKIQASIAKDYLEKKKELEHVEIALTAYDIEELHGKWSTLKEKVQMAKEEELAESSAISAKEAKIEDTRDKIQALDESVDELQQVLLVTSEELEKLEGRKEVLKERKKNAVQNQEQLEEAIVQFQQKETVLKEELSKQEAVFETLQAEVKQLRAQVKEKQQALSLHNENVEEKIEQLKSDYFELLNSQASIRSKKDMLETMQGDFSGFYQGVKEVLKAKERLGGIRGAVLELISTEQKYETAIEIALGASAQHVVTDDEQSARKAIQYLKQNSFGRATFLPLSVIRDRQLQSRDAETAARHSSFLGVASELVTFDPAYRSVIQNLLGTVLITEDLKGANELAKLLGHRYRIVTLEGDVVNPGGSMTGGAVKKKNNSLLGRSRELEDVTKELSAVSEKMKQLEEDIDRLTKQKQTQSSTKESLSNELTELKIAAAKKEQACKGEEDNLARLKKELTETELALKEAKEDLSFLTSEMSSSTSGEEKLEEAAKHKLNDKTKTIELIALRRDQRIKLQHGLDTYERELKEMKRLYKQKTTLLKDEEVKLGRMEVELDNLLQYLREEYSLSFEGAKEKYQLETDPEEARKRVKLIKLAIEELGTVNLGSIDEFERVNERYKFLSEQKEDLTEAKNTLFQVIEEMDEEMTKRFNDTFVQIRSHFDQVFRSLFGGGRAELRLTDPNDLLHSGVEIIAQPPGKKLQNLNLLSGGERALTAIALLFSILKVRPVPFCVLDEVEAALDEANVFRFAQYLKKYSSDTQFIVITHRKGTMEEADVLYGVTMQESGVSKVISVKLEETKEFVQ

Smc (Bs Smc) [4] = molecular target: T4, Smc (Bs Smc) (Bacillus subtilis, UniProt P51834, DEL436-486/DEL685-735); conditions: 50 mM HEPES-KOH pH 7.5, 50 mM NaCl, 2 mM MgCl2, 25 C, 0.3 uM protein, ATP varied; Mini-Smc(1-435, 487-684, 736-1186), construct taken from plasmid pSG2915
T4 construct: full length 1186 residues, untagged, E. coli BL21-Gold(DE3), homodimer; plasmid pSG1497 pET-22b Smc; no ScpAB or DNA
T4 sequence (P51834 other isoform, or with tags, fused parts or gaps DEL436-486/DEL685-735): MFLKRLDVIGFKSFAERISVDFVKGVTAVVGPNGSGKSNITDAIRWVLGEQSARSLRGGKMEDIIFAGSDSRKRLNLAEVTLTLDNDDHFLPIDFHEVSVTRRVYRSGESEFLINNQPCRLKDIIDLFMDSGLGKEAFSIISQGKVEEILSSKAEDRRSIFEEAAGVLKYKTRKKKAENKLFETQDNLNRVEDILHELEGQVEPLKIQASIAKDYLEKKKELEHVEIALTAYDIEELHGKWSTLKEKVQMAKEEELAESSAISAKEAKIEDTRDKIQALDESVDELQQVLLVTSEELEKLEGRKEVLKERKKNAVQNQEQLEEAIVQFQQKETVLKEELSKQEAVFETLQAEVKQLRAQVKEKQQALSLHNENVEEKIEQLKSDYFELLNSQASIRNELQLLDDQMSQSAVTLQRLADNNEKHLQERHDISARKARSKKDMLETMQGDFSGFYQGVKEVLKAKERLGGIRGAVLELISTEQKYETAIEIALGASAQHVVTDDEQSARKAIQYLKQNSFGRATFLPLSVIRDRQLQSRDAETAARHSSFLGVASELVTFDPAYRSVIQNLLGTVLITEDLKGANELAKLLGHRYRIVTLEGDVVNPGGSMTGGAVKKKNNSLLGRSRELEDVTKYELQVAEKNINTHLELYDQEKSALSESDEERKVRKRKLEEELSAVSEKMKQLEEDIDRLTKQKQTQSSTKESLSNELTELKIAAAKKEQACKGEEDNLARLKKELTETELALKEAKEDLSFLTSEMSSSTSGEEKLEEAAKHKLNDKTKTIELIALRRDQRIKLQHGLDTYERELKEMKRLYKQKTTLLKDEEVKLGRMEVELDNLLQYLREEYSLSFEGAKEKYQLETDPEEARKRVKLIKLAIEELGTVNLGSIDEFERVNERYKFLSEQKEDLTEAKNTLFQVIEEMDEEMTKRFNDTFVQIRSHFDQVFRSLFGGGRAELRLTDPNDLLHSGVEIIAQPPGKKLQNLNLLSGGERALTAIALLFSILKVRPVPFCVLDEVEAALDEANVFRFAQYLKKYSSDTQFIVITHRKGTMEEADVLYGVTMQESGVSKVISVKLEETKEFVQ

Smc (Bs Smc) [5] = molecular target: T5, Smc (Bs Smc) (Bacillus subtilis, UniProt P51834, DEL400-486/DEL685-771); conditions: 50 mM HEPES-KOH pH 7.5, 50 mM NaCl, 2 mM MgCl2, 25 C, 0.3 uM protein, ATP varied; Mini-Smc(1-399, 487-684, 772-1186), construct taken from plasmid pSG2916
T5 construct: full length 1186 residues, untagged, E. coli BL21-Gold(DE3), homodimer; plasmid pSG1497 pET-22b Smc; no ScpAB or DNA

Smc (Bs Smc) [6] = molecular target: T2, Smc (Bs Smc); conditions: 50 mM HEPES-KOH pH 7.5, 50 mM NaCl, 2 mM MgCl2, 25 C, 0.3 uM protein, ATP varied; peptide insertion, plasmid pSG2966; matching strain printed as smc(1-479)-SGPGGGGGRQYQA-smc(480-1186)

With `Nc1ncnc2c1ncn2[C@@H]1O[C@H](COP(=O)(O)OP(=O)(O)OP(=O)(O)O)[C@@H](O)[C@H]1O` [ATP] the K0.5 (Smc (Bs Smc) [1]) was “We then purified Mini-Smc proteins to measure their ability to hydrolyze ATP in vitro”, the K0.5 (Smc (Bs Smc) [2]) was “Smc proteins with peptide insertions are functional ATPases” and the K0.5 (Smc (Bs Smc) [3]) was “We then purified Mini-Smc proteins to measure their ability to hydrolyze ATP in vitro”. For the same compound, the K0.5 (Smc (Bs Smc) [4]) was “We then purified Mini-Smc proteins to measure their ability to hydrolyze ATP in vitro”, the K0.5 (Smc (Bs Smc) [5]) was “We then purified Mini-Smc proteins to measure their ability to hydrolyze ATP in vitro” and the K0.5 (Smc (Bs Smc) [6]) was “Smc proteins with peptide insertions are functional ATPases”.
